Data on 1 molecule can be found in article PMC5839409, “Targeting intracellular B2 receptors using novel cell-penetrating antagonists to arrest growth and induce apoptosis in human triple-negative breast cancer” (Oncotarget, 2018).

Assay [1] deals with MDA-MB-231 cells. As to the kind of experiment: Anchorage-dependent clonogenic assay. It is filed as cell-based, human. The settings on record: 1 to 100 µM (FR173657 up to 25 µM), 10-14 days. The procedure:
MDA-MB-231 cells were plated at 200 cells/well in a six-well dish in 2 ml DMEM medium containing 10% FBS. […] After 10 to 14 days, colonies were fixed and stained with 0.5% methylene blue in 50% ethanol. Excess of staining solution was removed carefully with tap water and the plates were dried overnight. Colony counting and densitometric analyses (to measure total colony numbers and surface areas) were performed using the Image Pro Plus 5.1 software.

Assay [2] deals with MDA-MB-231 cells. Kind of assay: Drug-drug synergy experiments (MTT, combination index). It counts as cell-based, human. Conditions: IC25 ratios, 72h, CalcuSyn. The procedure:
Interactions (synergy, additive, antagonistic activities) between CP-B2RAs (FR173657 and NG68) and chemotherapeutic drugs (doxorubicin and paclitaxel) were evaluated using MTT standard assays. Twenty-four hours after seeding, cells were treated with CP-B2RAs, the other testing drug, or in combination. For combination testing, CP-B2RAs or the other testing drugs were added to plate in triplicate wells in ratios of IC25 (IC25A: IC25B), and cells are incubated in drug-treated medium for 72h and cell viability determined by MTT. Synergy was determined by calculating combination index (CI) value with the formula CI = (CA,X / ICx,A) + (CB,X / ICx,B), where CA,X and CB,X are concentrations of drug A and drug B used in combination to achieve x% drug effect. ICx,A and ICx,B are concentrations for single agents to achieve the same effect. A CI of less than, equal to, and more than 1 indicates synergy, additivity, and antagonism, respectively.

In assay [3] the test system is MDA-MB-231 cells. As to the kind of experiment: Western blot of cell cycle, apoptosis and p38 proteins. It counts as cell-based, human. The method, then: For western blot analysis, appropriate amount of cell lysates or membrane and nuclear fractions (25–50 µg protein) were denatured, resolved on 9–12% SDS–PAGE and electrotransferred onto PVDF membranes. Blots were blocked using 5% nonfat dry milk and probed using appropriate primary antibodies in blocking buffer overnight at 4°C.
(A western blot detects proteins with antibodies after separation by electrophoresis.)

For assay [4], the system named is MDA-MB-231 cells. As to the kind of experiment: PI staining cell cycle analysis by flow cytometry. It counts as cell-based, human. Conditions: 24 h treatment; HOE 140 up to 100 μM. The procedure: MDA-MB-231 were plated at 500,000/plate in 10 cm plates containing medium (10% FBS/DMEM), and allowed to adhere for about 18 h. Thereafter, cells were serum-starved and treated with and without the B2RAs at the indicated concentrations for 24 h. At the end of treatments, cells were harvested, rinsed and fixed with ice cold ethanol 95%, for 2 h at 4°C. Fixed cells were rehydrated with 800 µl PBS for 30 min, and then washed again with PBS to remove all traces of ethanol. Cells were treated with RNase for 30 min prior to staining. PI was added to cell suspension at a concentration of 15 µg/ml and incubated overnight at 4°C. PI staining was assessed by flow cytometry using a FACSCanto II flow cytometer (BD Biosciences).

Assay [5] relates to MDA-MB-231 cells. Kind of assay: MTT proliferation assay. The settings on record: B2R shRNA knockdown MDA-MB-231 cells vs scrambled shRNA. It is filed as cell-based, human. The method, then: (§1) Cell proliferation assay on MDA-MB-231 cells was determined with colorimetric MTT as we described. Briefly, cells were seeded in a 96 wells plate at 2,000 cells/well in DMEM media supplemented with 10% FBS for 24h at 37°C. Cells were then incubated with and without the B2RAs at the indicated concentrations for the time shown. At the end of treatment period, MTT (0.25 mg/ml) was added to the cells and incubated for 1h30 at 37°C. Thereafter, the cell medium was removed, the formazan product solubilized in acidified isopropanol (100 µl of 1N HCl/anhydrous isopropanol 1:25) and the absorbance determined at 570 nm with an ELISA microplate reader (Spectra Max Plus, Molecular Devices, Sunnyvale, CA). For assessing the cytotoxicity of B2RAs and chemotherapeutic agents (carmustine, doxorubicin, carboplatin, temozolomide and paclitaxel), cells were grown to confluency in multi-well plates and exposed to starving media (DMEM without FBS) for 24h before beginning of the antagonist treatment. Cells were then incubated with MTT and treated exactly as described above. Cell viability was expressed as a percentage of optical density (OD) values obtained upon treatment relative to control.
(In general: Tetrazolium assays rely on reduction of a dye to a coloured formazan, in cell work by metabolically active cells.)

Assay [6] addresses T1, human B2R (Homo sapiens, UniProt P30411).
T1 construct: expressed in transfected cells; host or cells: HEK-293T
T1 sequence (P30411 1-391): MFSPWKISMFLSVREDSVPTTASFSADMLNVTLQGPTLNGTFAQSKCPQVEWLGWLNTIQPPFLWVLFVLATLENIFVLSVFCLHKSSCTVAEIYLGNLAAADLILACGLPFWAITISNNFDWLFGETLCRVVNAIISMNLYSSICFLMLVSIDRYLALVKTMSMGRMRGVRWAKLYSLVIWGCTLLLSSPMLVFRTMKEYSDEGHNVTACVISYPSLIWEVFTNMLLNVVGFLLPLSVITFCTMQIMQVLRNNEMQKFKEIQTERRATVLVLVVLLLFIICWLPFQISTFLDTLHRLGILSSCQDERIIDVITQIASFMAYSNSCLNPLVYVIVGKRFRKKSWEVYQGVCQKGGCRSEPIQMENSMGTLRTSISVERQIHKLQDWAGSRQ
Conditions: living adherent HEK-293T cells transiently transfected with hB2R; means ± s.e.m.; ref [34]; read-out: Binding hB2R-HEK293T IC50; cited from earlier work.

Assay [7] concerns the target T2, B2R endogenously expressed in the human de-endothelized umbilical veins (Homo sapiens, UniProt P30411).
T2 construct: B2R endogenously expressed in the human de-endothelized umbilical veins (hUV); from tissue; host or cells: human umbilical vein, de-endothelized
T2 sequence (P30411 1-391): T1 sequence (P30411 1-391)
Conditions: antagonist, reduction of BK submaximal contraction; means ± s.e.m.; ref [34]; read-out: Bioassay hUV IC50; cited from earlier work.

Assay [8] has as its system MDA-MB-231 cells. As to the kind of experiment: MTT cytotoxicity (cell viability) assay. It counts as cell-based, human. Conditions: MTT assay after 72h drug exposure; means ± s.e.m., n = 6 to 8; read-out: IC50 values (cytocidal activity). The procedure:
as §1

[9] abbreviates: 24h treatment, whole-cell lysates.

Each structure is given as a SMILES string.

Usually IC50 stands for the concentration needed to halve the response being measured. Consider `CC(=O)Nc1ccc(/C=C/C(=O)NCC(=O)N(C)c2ccc(Cl)c(COc3cccc4ccc(C)nc34)c2Cl)cn1` [FR 173657], for which, in assay [1], the “colony formation (antagonist effect)” value is “concentration-responsive clonal repression”. Moreover, the “combination index (CI)” value in assay [2] (combination with doxorubicin) and in assay [2] (combination with paclitaxel) was “below 1” throughout. Moreover, the “expression of BAD and p27Kip1” value in assay [3] (setting [9]) was “increased expression”. In addition, the “levels of MAPK and cyclin A” value in assay [3] (setting [9]) is “decreased the levels of MAPK and cyclin A”. In addition, in assay [3] (setting [9]), the “levels of anti-apoptotic protein XIAP” value is “appeared to reduce the levels”. Besides, in assay [3] (over time), the “phosphorylation of p38” value is reported as “significantly increased the phosphorylation”. The cell cycle distribution result in assay [4] is recorded as “tend to induce G0/G1 cell cycle arrest”. The “cytostatic activity after B2R downregulation” value in assay [5] was “significantly attenuated”. In addition, the 50% inhibitory concentration (IC50) was 37 ± 1.6 nM in assay [6], 6 ± 0.8 nM in assay [7] and 20 ± 1 µM in assay [8].
